Assay: isobaric coefficient of expansion
Conditions: Liquid, DSC

CCCCCCCCCC [decane]
isobaric coefficient of expansion
Conditions	278.15 K	288.15 K	298.15 K	308.15 K	318.15 K	328.15 K	338.15 K	348.15 K
5000 kPa	0.000969 1/K	0.000985 1/K	0.001 1/K	0.00102 1/K	0.00103 1/K	0.00105 1/K	0.00107 1/K	0.00108 1/K
10000 kPa	0.000945 1/K	0.000958 1/K	0.000975 1/K	0.000988 1/K	0.001 1/K	0.00101 1/K	0.00103 1/K	0.00103 1/K
15000 kPa	0.000922 1/K	0.000933 1/K	0.000949 1/K	0.000956 1/K	0.00097 1/K	0.000977 1/K	0.000987 1/K	0.000992 1/K
20000 kPa	0.000899 1/K	0.000907 1/K	0.000918 1/K	0.000928 1/K	0.000935 1/K	0.000942 1/K	0.00095 1/K	0.000956 1/K
25000 kPa	0.000878 1/K	0.000886 1/K	0.000896 1/K	0.000902 1/K	0.000907 1/K	0.000915 1/K	0.000919 1/K	0.000922 1/K
30000 kPa	0.000859 1/K	0.000868 1/K	0.000871 1/K	0.000878 1/K	0.000883 1/K	0.000885 1/K	0.000891 1/K	0.000893 1/K
35000 kPa	0.000843 1/K	0.000846 1/K	0.000849 1/K	0.000856 1/K	0.000858 1/K	0.000862 1/K	0.000862 1/K	0.000865 1/K
40000 kPa	0.000817 1/K	0.000823 1/K	0.000829 1/K	0.000834 1/K	0.000833 1/K	0.000833 1/K	0.000836 1/K	0.000835 1/K
45000 kPa	0.000807 1/K	0.000812 1/K	0.000812 1/K	0.000812 1/K	0.000815 1/K	0.000815 1/K	0.000816 1/K	0.000816 1/K
50000 kPa	0.000793 1/K	0.000797 1/K	0.000794 1/K	0.000796 1/K	0.000802 1/K	0.000797 1/K	0.000796 1/K	0.000795 1/K
55000 kPa	0.000784 1/K	0.00078 1/K	0.00078 1/K	0.000782 1/K	0.000781 1/K	0.000781 1/K	0.000779 1/K	0.000778 1/K

Reference: the NIST ThermoML archive (doi:10.1021/je900757k)
